Measurements: the NIST ThermoML archive (doi:10.1021/je700022b)

Conditions: Liquid; for viscosity: Falling or rolling sphere viscometry; for mass density: Constant-volume piezometry

CCCCn1cc[n+](C)c1.F[P-](F)(F)(F)(F)F [1-butyl-3-methylimidazolium hexafluorophosphate]
Conditions | mass density, 293.15 K [kg/m3] | mass density, 313.15 K [kg/m3] | mass density, 333.15 K [kg/m3] | mass density, 353.15 K [kg/m3] | viscosity, 293.15 K [mPa·s] | viscosity, 313.15 K [mPa·s] | viscosity, 333.15 K [mPa·s] | viscosity, 353.15 K [mPa·s]
100 kPa | – | – | – | – | 395 | – | – | –
15000 kPa | 1377 | 1362 | 1346 | 1330 | 468 | 140 | 61 | 29.3
20000 kPa | 1379 | 1364 | 1349 | 1332 | 504 | 151 | 63.2 | 30.5
